Patent US9079906B2, “Triazolopyridazines as PAR1 inhibitors, production thereof, and use as medicaments” (Sanofi, priority 2008, dated 2015)
Where a name gives a salt, the structure may show the parent alone.

biological target: PAR1 (Homo sapiens (Human), UniProt P25116); experiment: PAR1 binding test (radioligand displacement, membrane preparation); details: human PAR1 expressed in High Five insect cell membranes; radioligand 20 nM; read-out: Inhibition of binding IC50
Protocol: The synthesized substances were examined in a PAR1 binding test. This tested whether the substances can inhibit the binding of a radioactively labeled PAR1 agonist known from the literature at the PAR1 receptor (Ho-Sam Ahn, Mol Pharm, 51:350-356, 1997). The human PAR1 receptor was expressed transiently in High Five insect cells. From these cells, after 48 hours, a membrane preparation was produced by standard methods, aliquoted into 10 mM Tris-HCl; 0.3 mM EDTA; 1 mM EGTA; 250 mM sucrose pH 7.5, and stored at −80° C.
The substances were preincubated with the membrane at room temperature for 15 minutes, then the radioligand (ALA-(para-F-Phe)-Arg-ChA-homoArg-(3,4-^3H-Tyr)-NH2; approx. 40 Ci/mMol) was added. The end concentration of the radioligand in the test buffer (50 mM Tris-HCl; 10 mM MgCl2; 1 mM EGTA; 0.1% BSA; 2% DMSO) was 20 nM, that of the membrane 1 mg/ml. After an incubation time of 60 minutes, 25 μL of the mixture were transferred to a 96-well MultiScreenHTS FB microtiter filtration plate (from Millipore), which had been pretreated beforehand with a 0.75% aqueous polyethyleneimine solution for 5 hours at room temperature. Thereafter, with vacuum extraction, each well was washed four times with 300 μL of buffer (50 mM Tris-HCl; 10 mM MgCl2; 1 mM EGTA). The plate was then dried overnight, 100 μl of scintillator per well were added, and the plate was analyzed after 6 hours in a Wallac MicroBeta (from PerkinElmer) liquid scintillation counter. The nonspecific binding was determined in the presence of 100 μM SCH79797 (PAR-1 antagonist; from Tocris, Cat. No. 1592) and subtracted from all measurements. The 100% value used was a control without inhibitor. The % inhibition values of a substance dilution series were used to calculate the IC50 with the aid of nonlinear regression analysis according to the 4-parameter equation.

PAR1, sequence (P25116 22-425): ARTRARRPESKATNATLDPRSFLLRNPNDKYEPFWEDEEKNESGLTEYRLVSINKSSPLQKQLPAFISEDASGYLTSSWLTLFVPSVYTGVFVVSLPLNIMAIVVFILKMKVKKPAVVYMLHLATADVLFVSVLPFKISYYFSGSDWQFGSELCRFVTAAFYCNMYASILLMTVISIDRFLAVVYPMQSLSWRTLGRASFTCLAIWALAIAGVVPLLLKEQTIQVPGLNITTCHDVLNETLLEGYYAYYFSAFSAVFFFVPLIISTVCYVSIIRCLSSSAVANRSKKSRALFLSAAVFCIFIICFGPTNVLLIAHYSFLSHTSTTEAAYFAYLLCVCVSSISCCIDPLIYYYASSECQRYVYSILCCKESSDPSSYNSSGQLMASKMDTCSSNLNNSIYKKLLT

Row | Structure (SMILES) | IC50 [nM]
1 | CCC(CC)Oc1ccc2nn(CC(=O)c3cc(N4CCOCC4)c(OC)c(C(C)(C)C)c3)c(=N)n2n1 [Example 14, 1-(3-tert-butyl-4-methoxy-5-morpholin-4-ylphenyl)-2-[6-(1-ethylpropoxy)-3-imino-[1,2,4]triazolo[4,3-b]pyridazin-2-yl)ethanone trifluoroacetic acid salt] | 279
2 | CCC(CC)Oc1ccc2nn(CC(=O)c3cc(OCC4CC4)cc(C(C)(C)C)c3)c(=N)n2n1 [Example 26, 1-(3-tert-butyl-5-cyclopropylmethoxyphenyl)-2-[6-(1-ethylpropoxy)-3-imino-[1,2,4]triazolo[4,3-b]pyridazin-2-yl]ethanone hydrochloride] | 1100
3 | CCC(CC)Oc1ccc2nn(CC(=O)c3cc(OCCOC)cc(C(C)(C)C)c3)c(=N)n2n1 [Example 50, 1-[3-tert-butyl-5-(2-methoxy-ethoxy)phenyl]-2-[6-(1-ethylpropoxy)-3-imino-[1,2,4]triazolo[4,3-b]pyridazin-2-yl]ethanone hydrochloride] | 631
4 | COc1c(N2CCOCC2)cc(C(=O)Cn2nc3ccc(Cl)nn3c2=N)cc1C(C)(C)C [Example 56, 1-(3-tert-butyl-4-methoxy-5-morpholin-4-ylphenyl)-2-(6-chloro-3-imino-[1,2,4]triazolo-[4,3-b]pyridazin-2-yl)-ethanone trifluoroacetic acid salt] | 24000
5 | CCOc1nn2c(=N)n(CC(=O)c3cc(OC)cc(S(F)(F)(F)(F)F)c3)nc2cc1N(CC)CC [Example 84, 2-(7-diethylamino-6-ethoxy-3-imino-[1,2,4]triazolo[4,3-b]pyridazin-2-yl)-1-[3-methoxy-5-(pentafluorosulfanyl)-phenyl]ethanone trifluoroacetic acid salt] | 9800
6 | CCC(CC)Oc1cc(C)c2nn(CC(=O)c3cc(OCCO)cc(C(C)(C)C)c3)c(=N)n2n1 [Example 89, 1-[3-tert-butyl-5-(2-hydroxyethoxy)phenyl]-2-[6-(1-ethylpropoxy)-3-imino-8-methyl-[1,2,4]triazolo[4,3-b]pyridazin-2-yl]ethanone hydrochloride] | 107
7 | COCCCOc1cc(C(=O)Cn2nc3c(C)cc(OCCO)nn3c2=N)cc(C(C)(C)C)c1 [Example 101, 1-[3-tert-butyl-5-(3-methoxy-propoxy)phenyl]-2-[6-(2-hydroxyethoxy)-3-imino-8-methyl-[1,2,4]triazolo[4,3-b]pyridazin-2-yl]ethanone hydrochloride] | 1400
8 | CCC(CC)Oc1cc(C)c2nn(CC(=O)c3cc(OCCO)c(OC)c(C(C)(C)C)c3)c(=N)n2n1 [Example 117, 1-[3-tert-butyl-5-(2-hydroxy-ethoxy)-4-methoxyphenyl]-2-[6-(1′-ethylpropoxy)-3-imino-8-methyl-[1,2,4]triazolo[4,3-b]-pyridazin-2-yl]ethanone hydrochloride] | 98
9 | CCOc1cc(C)c2nn(CC(=O)c3cc(OC(COC)COC)cc(C(C)(C)C)c3)c(=N)n2n1 [Example 127, 1-[3-tert-butyl-5-(2-methoxy-1-methoxymethylethoxy)phenyl]-2-(6-ethoxy-3-imino-8-methyl-[1,2,4]triazolo[4,3-b]pyridazin-2-yl)ethanone hydrochloride] | 2500
10 | CCOc1nn2c(=N)n(CC(=O)c3cc(N4CCOCC4)c(OC)c(C(C)(C)C)c3)nc2cc1CC [Example 144, 1-(3-tert-butyl-4-methoxy-5-morpholin-4-ylphenyl)-2-(6-ethoxy-7-ethyl-3-imino-[1,2,4]triazolo[4,3-b]pyridazin-2-yl)ethanone trifluoroacetic acid salt] | 827
11 | CCC(CC)Oc1cc(C)c2nn(CC(=O)c3cc(OCCO)cc(S(F)(F)(F)(F)F)c3)c(=N)n2n1 [Example 161, 2-[6-(1-ethylpropoxy)-3-imino-8-methyl-[1,2,4]triazolo[4,3-b]pyridazin-2-yl]-1-[3-(2-hydroxy-ethoxy)-5-(pentafluorosulfanyl)-phenyl]ethanone trifluoroacetic acid salt] | 365
12 | CCOc1nn2/c(=N/C)n(CC(=O)c3cc(OCCO)cc(C(C)(C)C)c3)nc2c(C)c1C [Example 163, 1-[3-tert-butyl-5-(2-hydroxy-ethoxy)phenyl]-2-{6-ethoxy-7,8-dimethyl-3-[(E)-methylimino]-[1,2,4]triazolo[4,3-b]pyridazin-2-yl}ethanone hydrochloride] | 364
13 | CCOc1cc(C(C)(C)O)c2nn(CC(=O)c3cc(OCCCO)c(OC)c(C(C)(C)C)c3)c(=N)n2n1 [Example 168, 1-[3-tert-butyl-5-(3-hydroxy-propoxy)-4-methoxyphenyl]-2-[6-ethoxy-8-(1-hydroxy-1-methyl-ethyl)-3-imino-[1,2,4]triazolo[4,3-b]pyridazin-2-yl]ethanone hydrochloride] | 257
14 | CCOc1cc(CC)c2nn(CC(=O)c3cc(OCCCO)c(OC)c(C(C)(C)C)c3)c(=N)n2n1 [Example 174, 1-[3-tert-butyl-5-(3-hydroxy-propoxy)-4-methoxyphenyl]-2-(6-ethoxy-8-ethyl-3-imino-[1,2,4]triazolo[4,3-b]pyridazin-2-yl)ethanone hydrochloride] | 183
15 | CCOc1nn2c(=N)n(CC(=O)c3cc(OCCCCO)c(OC)c(C(C)(C)C)c3)nc2c(C)c1C [Example 178, 1-[3-tert-butyl-5-(4-hydroxy-butoxy)-4-methoxyphenyl]-2-(6-ethoxy-3-imino-7,8-dimethyl-[1,2,4]triazolo[4,3-b]pyridazin-2-yl)ethanone hydrochloride] | 126
16 | CCN(CC)c1nn2c(=N)n(CC(=O)c3cc(OCCCO)c(OC)c(C(C)(C)C)c3)nc2c(C)c1C [Example 186, 1-[3-tert-butyl-5-(3-hydroxy-propoxy)-4-methoxyphenyl]-2-(6-diethylamino-3-imino-7,8-methyl-[1,2,4]triazolo[4,3-b]pyridazin-2-yl)ethanone hydrochloride] | 119
17 | CCOc1nn2c(=N)n(CC(=O)c3cc(OCCCO)c(OC)c(C(C)(C)C)c3)nc2c(CC)c1CC [Example 197, 1-[3-tert-butyl-5-(3-hydroxy-propoxy)-4-methoxyphenyl]-2-(6-ethoxy-7,8-diethyl-3-imino-[1,2,4]triazolo[4,3-b]pyridazin-2-yl)ethanone hydrochloride] | 149
18 | COc1c(OCCCCO)cc(C(=O)Cn2nc3c(C)cc(OCC4CC4)nn3c2=N)cc1C(C)(C)C [Example 199, 1-[3-tert-butyl-5-(4-hydroxy-butoxy)-4-methoxyphenyl]-2-(6-cyclopropylmethoxy-3-imino-8-methyl-[1,2,4]triazolo[4,3-b]pyridazin-2-yl)ethanone hydrochloride] | 206
19 | CCNC(=O)c1nn2/c(=N/C)n(CC(=O)c3cc(OCCO)c(OC)c(C(C)(C)C)c3)nc2c(C)c1C [Example 207, N-ethyl-2-{2-[3-tert-butyl-5-(2-hydroxyethoxy)-4-methoxy-phenyl]-2-oxoethyl}-7,8-dimethyl-3-[(E)-methylimino]-2,3-dihydro-[1,2,4]triazolo[4,3-b]pyridazine-6-carboxamide hydrochloride] | 174
20 | Cc1c(OC(C)C)nn2c(=N)n(CC(=O)c3cc(OCCO)cc(C(C)(C)C)c3)nc2c1C [Example 215, 1-[3-tert-butyl-5-(2-hydroxy-ethoxy)phenyl]-(3-imino-6-isopropoxy-7,8-dimethyl-[1,2,4]triazolo[4,3-b]pyridazin-2-yl)ethanone hydrochloride] | 219
21 | CCOc1nn2c(=N)n(CC(=O)c3cc(OCCO)cc(C(C)(C)C)c3)nc2c(CC)c1C [Example 221, 1-[3-tert-butyl-5-(2-hydroxy-ethoxy)phenyl]-2-(6-ethoxy-8-ethyl-3-imino-7-methyl-[1,2,4]triazolo[4,3-b]pyridazin-2-yl)ethanone hydrochloride] | 155
22 | CCOc1nn2c(=N)n(CC(=O)c3cc(OCCCF)cc(C(C)(C)C)c3)nc2c(C)c1C [Example 222, 1-[3-tert-butyl-5-(3-fluoro-propoxy)phenyl]-2-(6-ethoxy-3-imino-7,8-dimethyl-[1,2,4]triazolo[4,3-b]pyridazin-2-yl)ethanone hydrochloride] | 416
23 | CCOc1nn2c(=N)n(CC(=O)c3cc(C(C)(C)C)cc(C(C)(C)OC)c3)nc2c(C)c1C [Example 230, 1-[3-tert-butyl-5-(1-methoxy-1-methylethyl)phenyl]-2-(6-ethoxy-3-imino-7,8-dimethyl-[1,2,4]triazolo[4,3-b]pyridazin-2-yl)ethanone hydrochloride] | 234
24 | Cc1cc(OCC2(C)COC2)nn2c(=N)n(CC(=O)c3cc(OCCO)cc(C(C)(C)C)c3)nc12 [Example 236, 1-[3-tert-butyl-5-(2-hydroxy-ethoxy)phenyl]-2-[3-imino-8-methyl-6-(3-methyloxetan-3-ylmethoxy)-[1,2,4]triazolo[4,3-b]-pyridazin-2-yl]ethanone hydrobromide] | 1400
